These results are taken from PubChem BioAssay (NCI).

What all share (test): growth of human tumour cells (NCI), 48 h
Experiment [1] relates to COLO 205 colon.
For experiment [2], the system named is DU-145 prostate.
Experiment [3] concerns EKVX NSCLC.
Experiment [4] has as its system HS 578T breast.
In experiment [5] the test system is LOX IMVI melanoma.
In experiment [6] the test system is MDA-MB-435.
In experiment [7] the test system is MOLT-4 leukemia.
Experiment [8] concerns NCI-H522 lung.
For experiment [9], the system named is OVCAR-3 ovarian.
In experiment [10] the test system is RXF 393 renal.
Experiment [11] has as its system SF-295 CNS.
Experiment [12] concerns SK-OV-3 ovarian.
Experiment [13] deals with SN12C renal.
Experiment [14] has as its system SNB-19 CNS.
The test system of experiment [15] is U251 CNS.
Experiment [16] relates to UO-31 renal.

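Values below derive from 48-hour exposures of cells grown in 96-well plates, with endpoints linearly interpolated between the two concentrations bracketing the appropriate inhibition level. The concentration for full growth arrest is given as TGI.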

Regarding `NC(=S)Nc1c(S(N)(=O)=O)cc(S(N)(=O)=O)c(Cl)c1Cl`, the TGI in [1], in experiment [2], in [3], in experiment [4], in experiment [5] and in experiment [6] was more than 100 µM each time. Also, the TGI in experiment [7], in [8], in experiment [9], in [10], in experiment [11] and in experiment [12] was more than 100 µM each time. Also, the TGI in experiment [13], in [14], in [15] and in experiment [16] was more than 100 µM each time.

For the compound `N#Cc1nc(N)c(C#N)[nH]1`, the TGI in [1], in [2], in [3], in experiment [4], in experiment [5] and in experiment [6] was more than 100 µM each time. Besides, the TGI in experiment [7], in [8], in experiment [9], in experiment [10], in experiment [11] and in [12] was more than 100 µM each time. For the same compound, the TGI in [13], in [14], in experiment [15] and in [16] was more than 100 µM each time.

Consider `O=C(CC(O)(C(F)(F)Cl)C(F)(F)Cl)CC(O)(C(F)(F)Cl)C(F)(F)Cl`, for which the TGI in experiment [1] is 3.07 µM; in experiment [2], more than 10 µM; in [3], 8.02 µM; in experiment [4] it was 7.86 µM; in experiment [5], more than 10 µM; in experiment [6] it was 8.63 µM. Also, the TGI in experiment [7] is more than 10 µM; in [8], more than 10 µM; in [9], more than 10 µM; in experiment [10], 6.08 µM; in [11] it was 9.51 µM; in experiment [12], 5.89 µM. For the same compound, the TGI in [13] was more than 10 µM; in experiment [14], more than 10 µM; in experiment [15], 7.39 µM; in [16] it was more than 10 µM.

Regarding `Cc1cc(C)c2c(=O)cc(-c3ccccc3)[nH]c2c1`, the TGI in experiment [1] is more than 52 µM; in experiment [2], 98.4 µM; in [3] it was 42.8 µM; in experiment [4], 21.2 µM; in [5], 41.2 µM; in experiment [6], 41.6 µM. In addition, the TGI in experiment [7] is more than 100 µM; in experiment [8] it was 7.29 µM; in experiment [9], 25.6 µM; in experiment [10], 5.11 µM; in [11], 17.9 µM; in [12], 15.7 µM. The TGI in experiment [13] is more than 65.3 µM; in experiment [14] it was more than 100 µM; in experiment [15], 18 µM; in [16] it was 27.8 µM.

On to `Cc1ccc(NC(=O)C23CC4CC(CC(C4)C2)C3)c(C(=O)NNC(=O)c2ccc(Cl)cc2)c1`, for which the TGI was more than 100 µM in [1]; more than 100 µM in [2]; 68 µM in experiment [3]; 33.8 µM in experiment [4]; 35.3 µM in [5]; 37.4 µM in [6]. Further, the TGI was 62.3 µM in experiment [7]; 30.4 µM in [8]; 66.9 µM in experiment [9]; 39.8 µM in [10]; 66.5 µM in experiment [11]; 39 µM in experiment [12]. Moreover, the TGI in [13] is more than 100 µM; in experiment [14] it was 8.91 µM; in experiment [15] it was 37.1 µM; in experiment [16], 37 µM.

As to `C/C(CC(O)(C(F)(F)Cl)C(F)(F)Cl)=N\Nc1ccccc1`, the TGI in experiment [1] was more than 100 µM; in [2], more than 100 µM; in [3] it was 93.8 µM; in [4], 66.2 µM; in [5] it was more than 100 µM; in experiment [6], more than 100 µM. Also, the TGI in experiment [7] was 84.2 µM; in [8] it was more than 100 µM; in experiment [9] it was 48.3 µM; in [10], 47.6 µM; in [11], more than 100 µM; in experiment [12], more than 100 µM. The TGI in [14] was more than 100 µM; in [15], 89.4 µM; in [16] it was more than 100 µM.

As to `COc1ccc(NS(=O)(=O)c2ccc3ncn(NS(=O)(=O)c4ccc(I)cc4)c(=O)c3c2)cc1`, the TGI in experiment [1], in experiment [2], in [3], in experiment [4], in [5] and in experiment [6] was more than 100 µM in each case. Besides, the TGI in [7], in [8], in [9], in experiment [10], in [11] and in experiment [12] was more than 100 µM in each case. Besides, the TGI in [13], in [14], in experiment [15] and in experiment [16] was more than 100 µM in each case.

In the case of `C=CC(Br)(CBr)CCC1OC1(C)C` (configuration not stated), the TGI in [1] came out at 36.2 µM; in experiment [2], 59.8 µM; in experiment [3], 38.5 µM; in experiment [4] it was 37.6 µM; in [5], 17.8 µM; in experiment [6] it was 31.3 µM. The TGI stood at 47.8 µM in experiment [7]; 34.1 µM in experiment [8]; 36.8 µM in experiment [9]; 21.4 µM in [10]; 32 µM in experiment [11]; 51.7 µM in experiment [12]. In addition, the TGI in [13] was found to be 30.5 µM; in [14] it was 32.7 µM; in experiment [15] it was 30.7 µM; in experiment [16], 32.8 µM.
